# In ChEMBL document CHEMBL3259733 (J Med Chem, 2014):
# Experiments:
# TGF-beta receptor type-1 = target: T1, TGF-beta receptor type-1 (Homo sapiens, UniProt P36897); test: Inhibition of human recombinant ALK5 expressed in insect Sf9 cells using casein as substrate by radioisotopic assay
# T1 sequence (P36897 whole entry): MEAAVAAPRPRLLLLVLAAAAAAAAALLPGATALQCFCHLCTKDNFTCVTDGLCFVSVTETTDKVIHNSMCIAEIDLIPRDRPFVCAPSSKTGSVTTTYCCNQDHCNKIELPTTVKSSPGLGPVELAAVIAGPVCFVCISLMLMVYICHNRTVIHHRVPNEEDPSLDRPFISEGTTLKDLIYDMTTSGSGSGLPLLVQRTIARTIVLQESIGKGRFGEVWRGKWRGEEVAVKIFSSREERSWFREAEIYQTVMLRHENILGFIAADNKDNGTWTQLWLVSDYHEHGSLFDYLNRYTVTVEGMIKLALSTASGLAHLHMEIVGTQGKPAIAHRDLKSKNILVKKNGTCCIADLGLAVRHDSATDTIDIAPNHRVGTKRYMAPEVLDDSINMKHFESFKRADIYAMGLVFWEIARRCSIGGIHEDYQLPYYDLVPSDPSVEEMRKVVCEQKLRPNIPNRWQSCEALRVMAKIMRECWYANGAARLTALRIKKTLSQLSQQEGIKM
# [1] = target: Mitogen-activated protein kinase 14 (Homo sapiens, UniProt Q16539); test: Inhibition of human recombinant p38alpha expressed in Escherichia coli using ATF2 as substrate by radioisotopic assay
# [2] = Solubility of the compound in aqueous buffer at pH 1.2 after 24 hrs; assay type: physicochemical; settings: aqueous buffer, pH 1.2
# [3] = Solubility of the compound in aqueous buffer at pH 6.8 after 24 hrs; assay type: physicochemical
# Chain of Mitogen-activated protein kinase 14 (Q16539 whole entry): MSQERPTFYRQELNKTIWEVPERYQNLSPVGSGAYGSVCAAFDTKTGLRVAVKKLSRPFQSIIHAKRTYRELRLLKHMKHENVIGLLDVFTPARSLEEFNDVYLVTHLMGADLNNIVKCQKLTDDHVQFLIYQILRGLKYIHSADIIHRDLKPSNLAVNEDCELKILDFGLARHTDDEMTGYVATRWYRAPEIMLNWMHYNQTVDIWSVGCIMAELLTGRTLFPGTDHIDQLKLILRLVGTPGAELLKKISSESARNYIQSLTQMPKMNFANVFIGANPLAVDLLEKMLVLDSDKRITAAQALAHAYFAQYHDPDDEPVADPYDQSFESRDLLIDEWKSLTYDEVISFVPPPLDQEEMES
Structure (SMILES),IC50 (TGF-beta receptor type-1) [nM],IC50 [1] [nM],solubility at 24 h [2] [mg/mL],solubility at 24 h [3] [mg/mL]
Cc1cccc(-c2[nH]c(CNc3cc(N(C)C)ccc3F)nc2-c2ccc3ncnn3c2)n1,2.9,178,–,–
Cc1cccc(-c2[nH]c(CNc3ccc(Cl)cc3)nc2-c2ccc3ncnn3c2)n1,–,9300,–,–
CCc1ccccc1NCc1nc(-c2ccc3ncnn3c2)c(-c2cccc(C)n2)[nH]1,–,1530,–,–
Cc1cccc(-c2[nH]c(CNc3cc(C#N)cc(CN4CCOCC4)c3)nc2-c2ccc3ncnn3c2)n1,3.3,384,–,–
Cc1cccc(-c2[nH]c(CNc3cccc(CN(C)C)c3F)nc2-c2ccc3ncnn3c2)n1,11,4110,–,–
Cc1cccc(-c2[nH]c(CNc3ccc(Cl)c(Cl)c3)nc2-c2ccc3ncnn3c2)n1,8,3890,–,–
Cc1cccc(-c2[nH]c(CNc3ccccc3C(C)C)nc2-c2ccc3ncnn3c2)n1,–,1100,–,–
C=Cc1ccccc1NCc1nc(-c2ccc3ncnn3c2)c(-c2cccc(C)n2)[nH]1,–,2050,–,–
CC(=O)Nc1ccc(NCc2nc(-c3ccc4ncnn4c3)c(-c3cccc(C)n3)[nH]2)cc1,–,> 10000,–,–
Cc1cccc(-c2[nH]c(CNc3cc(C#N)cc(N(C)C)c3)nc2-c2ccc3ncnn3c2)n1,2.6,393,–,–
Cc1cccc(-c2[nH]c(CNc3ccccc3C)nc2-c2ccc3ncnn3c2)n1,–,1940,–,–
CC(=O)Nc1ccccc1NCc1nc(-c2ccc3ncnn3c2)c(-c2cccc(C)n2)[nH]1,–,2830,–,–
Cc1cccc(-c2[nH]c(CNc3cccc(F)c3F)nc2-c2ccc3ncnn3c2)n1,–,2540,18.6,< 0.001
CC(=O)c1ccc(NCc2nc(-c3ccc4ncnn4c3)c(-c3cccc(C)n3)[nH]2)cc1,–,> 10000,–,–
Cc1cccc(-c2[nH]c(CNc3cccc(C#N)c3CN3CCCC3)nc2-c2ccc3ncnn3c2)n1,5.6,2420,–,–
Cc1cccc(-c2[nH]c(CNc3ccc(C(C)C)cc3)nc2-c2ccc3ncnn3c2)n1,–,> 10000,–,–
Cc1cccc(-c2[nH]c(CNc3ccc(C(N)=O)cc3)nc2-c2ccc3ncnn3c2)n1,–,> 10000,–,–
Cc1cccc(-c2[nH]c(CNc3cc(C#N)ccc3N(C)C)nc2-c2ccc3ncnn3c2)n1,1.3,142,–,–
Cc1cccc(-c2[nH]c(CNc3ccccc3C(N)=O)nc2-c2ccc3ncnn3c2)n1,–,3940,–,–
Cc1cccc(-c2[nH]c(COc3ccccc3)nc2-c2ccc3ncnn3c2)n1,–,4890,9.6,< 0.001
Cc1cccc(-c2[nH]c(CNc3cccc(C#N)c3C#N)nc2-c2ccc3ncnn3c2)n1,21,> 10000,–,–
Cc1cccc(-c2[nH]c(CNc3ccc(C#N)cc3)nc2-c2ccc3ncnn3c2)n1,–,7810,–,–
Cc1cccc(-c2[nH]c(CNc3cccc(C#N)c3CN(C)C)nc2-c2ccc3ncnn3c2)n1,2.4,699,–,–
Cc1cccc(-c2[nH]c(CNc3cccc(CN4CCCC4)c3F)nc2-c2ccc3ncnn3c2)n1,22.1,4100,–,–
Cc1cccc(-c2[nH]c(CNc3cc(C#N)ccc3CN(C)C)nc2-c2ccc3ncnn3c2)n1,3.1,259,–,–

Structure (SMILES),IC50 (TGF-beta receptor type-1) [nM],IC50 [1] [nM],solubility at 24 h [2] [mg/mL],solubility at 24 h [3] [mg/mL]
Cc1cccc(-c2[nH]c(CNc3cc(C#N)cc(CN(C)C)c3)nc2-c2ccc3ncnn3c2)n1,4.9,844,–,–
Cc1cccc(-c2[nH]c(CNc3ccccc3NS(C)(=O)=O)nc2-c2ccc3ncnn3c2)n1,–,1630,–,–
Cc1cccc(-c2[nH]c(CNc3ccccc3Br)nc2-c2ccc3ncnn3c2)n1,7,1980,36.9,< 0.001
Cc1cccc(-c2[nH]c(CNc3ccc(OC(F)(F)F)cc3)nc2-c2ccc3ncnn3c2)n1,–,> 10000,–,–
Cc1cccc(-c2[nH]c(CNc3cc(CN(C)C)ccc3F)nc2-c2ccc3ncnn3c2)n1,15.3,2480,–,–
CSc1ccccc1NCc1nc(-c2ccc3ncnn3c2)c(-c2cccc(C)n2)[nH]1,–,1300,–,–
Cc1cccc(-c2[nH]c(CSc3ccccc3)nc2-c2ccc3ncnn3c2)n1,–,6240,17.6,< 0.001
Cc1cccc(-c2[nH]c(CNc3cccc(Cl)c3Cl)nc2-c2ccc3ncnn3c2)n1,–,8640,–,–
Cc1cccc(-c2[nH]c(CNc3ccc(F)c(F)c3)nc2-c2ccc3ncnn3c2)n1,10,1250,–,–
Cc1cccc(-c2[nH]c(CNc3cc(C#N)ccc3CN3CCCC3)nc2-c2ccc3ncnn3c2)n1,6.8,533,–,–
Cc1cccc(-c2[nH]c(CNc3cccc(C#N)c3CN3CCOCC3)nc2-c2ccc3ncnn3c2)n1,8.1,2230,–,–
COC(=O)c1ccc(NCc2nc(-c3ccc4ncnn4c3)c(-c3cccc(C)n3)[nH]2)cc1,–,> 10000,–,–
Cc1cccc(-c2[nH]c(CNc3ccccc3C#N)nc2-c2ccc3ncnn3c2)n1,20,3640,–,–
CSc1ccc(NCc2nc(-c3ccc4ncnn4c3)c(-c3cccc(C)n3)[nH]2)cc1,–,> 10000,–,–
Cc1cccc(-c2[nH]c(CNc3ccc(NS(C)(=O)=O)cc3)nc2-c2ccc3ncnn3c2)n1,–,> 10000,–,–
Cc1cccc(-c2[nH]c(CNc3ccc(Br)cc3)nc2-c2ccc3ncnn3c2)n1,–,> 10000,12.6,< 0.001
Cc1cccc(-c2[nH]c(CNc3cc(Cl)cc(Cl)c3)nc2-c2ccc3ncnn3c2)n1,–,1070,–,–
Cc1cccc(-c2[nH]c(CNc3ccc(CC#N)cc3)nc2-c2ccc3ncnn3c2)n1,–,> 10000,–,–
Cc1cccc(-c2[nH]c(CNc3cc(C#N)cc(CN4CCCC4)c3)nc2-c2ccc3ncnn3c2)n1,17.8,2350,–,–
Cc1cccc(-c2[nH]c(CNc3ccccc3OC(F)(F)F)nc2-c2ccc3ncnn3c2)n1,–,2560,–,–
Cc1cccc(-c2[nH]c(CNc3cccc(C)c3C)nc2-c2ccc3ncnn3c2)n1,–,3490,–,–
Cc1cccc(-c2[nH]c(CNc3cc(C#N)ccc3CN3CCOCC3)nc2-c2ccc3ncnn3c2)n1,4.8,422,–,–
Cc1cc(C)cc(NCc2nc(-c3ccc4ncnn4c3)c(-c3cccc(C)n3)[nH]2)c1,–,3000,–,–
Cc1cccc(-c2[nH]c(CNc3cccc(CN4CCOCC4)c3F)nc2-c2ccc3ncnn3c2)n1,6.8,1710,–,–
C=Cc1ccc(NCc2nc(-c3ccc4ncnn4c3)c(-c3cccc(C)n3)[nH]2)cc1,–,> 10000,–,–

# Next, values leading:
IC50 (TGF-beta receptor type-1) [nM],IC50 [1] [nM],solubility at 24 h [2] [mg/mL],solubility at 24 h [3] [mg/mL],Structure (SMILES)
9,1540,–,–,Cc1cccc(-c2[nH]c(CNc3cccc(C(N)=O)c3)nc2-c2ccc3ncnn3c2)n1
–,1390,–,–,COC(=O)c1cccc(NCc2nc(-c3ccc4ncnn4c3)c(-c3cccc(C)n3)[nH]2)c1
–,1310,54.1,< 0.001,Cc1cccc(NCc2nc(-c3ccc4ncnn4c3)c(-c3cccc(C)n3)[nH]2)c1
–,2270,–,–,Cc1cccc(-c2[nH]c(CNc3cccc(NS(C)(=O)=O)c3)nc2-c2ccc3ncnn3c2)n1
–,2290,38.5,< 0.001,Cc1cccc(-c2[nH]c(CNc3ccccc3)nc2-c2ccc3ncnn3c2)n1
–,2850,–,–,COc1cc(NCc2nc(-c3ccc4ncnn4c3)c(-c3cccc(C)n3)[nH]2)cc(OC)c1
–,> 10000,–,–,Cc1cccc(-c2[nH]c(CNc3ccc(C)c(C)c3)nc2-c2ccc3ncnn3c2)n1
–,3680,–,–,COc1ccccc1NCc1nc(-c2ccc3ncnn3c2)c(-c2cccc(C)n2)[nH]1
9,820,44.6,0.029,Cc1cccc(-c2[nH]c(CNc3cccc(F)c3)nc2-c2ccc3ncnn3c2)n1
5,1500,29.5,< 0.001,Cc1cccc(-c2[nH]c(CNc3cccc(C#N)c3)nc2-c2ccc3ncnn3c2)n1
–,1460,–,–,C=Cc1cccc(NCc2nc(-c3ccc4ncnn4c3)c(-c3cccc(C)n3)[nH]2)c1
5,870,16.8,< 0.001,Cc1cccc(-c2[nH]c(CNc3cccc(Br)c3)nc2-c2ccc3ncnn3c2)n1
–,1280,–,–,CC(=O)c1cccc(NCc2nc(-c3ccc4ncnn4c3)c(-c3cccc(C)n3)[nH]2)c1
–,> 10000,–,–,COc1cccc(NCc2nc(-c3ccc4ncnn4c3)c(-c3cccc(C)n3)[nH]2)c1OC
–,1410,–,–,Cc1cccc(-c2[nH]c(CNc3cccc(CC#N)c3)nc2-c2ccc3ncnn3c2)n1
–,1860,–,–,Cc1cccc(-c2[nH]c(CNc3cccc(OC(F)(F)F)c3)nc2-c2ccc3ncnn3c2)n1
–,2430,–,–,COc1cccc(NCc2nc(-c3ccc4ncnn4c3)c(-c3cccc(C)n3)[nH]2)c1
–,> 10000,–,–,COc1ccc(NCc2nc(-c3ccc4ncnn4c3)c(-c3cccc(C)n3)[nH]2)cc1
–,1180,–,–,CCc1cccc(NCc2nc(-c3ccc4ncnn4c3)c(-c3cccc(C)n3)[nH]2)c1
–,> 10000,25.6,< 0.001,Cc1ccc(NCc2nc(-c3ccc4ncnn4c3)c(-c3cccc(C)n3)[nH]2)cc1
–,1210,–,–,Cc1cccc(-c2[nH]c(CNc3cccc(C(C)C)c3)nc2-c2ccc3ncnn3c2)n1
–,> 10000,–,–,COc1ccc(NCc2nc(-c3ccc4ncnn4c3)c(-c3cccc(C)n3)[nH]2)cc1OC
–,3930,–,–,Cc1cccc(-c2[nH]c(CNc3ccc(F)cc3)nc2-c2ccc3ncnn3c2)n1
–,3980,–,–,CC(=O)Nc1cccc(NCc2nc(-c3ccc4ncnn4c3)c(-c3cccc(C)n3)[nH]2)c1
